Results reported in patent publication US6011019A, “Vasoactive effects and free radical generation by β-amyloid peptides” (University of South Florida, priority 1996, dated 2000).

Assays:
[1] = test system: endothelial cells in aortic rings; assay: Electron microscopy of endothelial cell layer in aortic rings; parameters: species or system rat
Experimental: As shown in FIGS. 14A-F, […], or in presence of β-amyloid (10^-6 M), or SOD (150 units/ml) and β-amyloid.The tissue samples were kept in glutaraldehyde solution at 4° C. until processed and then rinsed with cacodylate buffer. The tissues were postfixed with 1% buffered osmium tetroxide, dehydrated with graded ethanol solutions, and embedded in a mixture of eponaraldite. Ultrathin sections were stained with uranyl acetate and lead citrate and viewed on model 7000 Hitachi transmission electron microscope. The inset bar indicates one micron. The experiment was repeated three or more times with blood vessels from different animals.

blood vessel (rat aorta) = assay: Vascular response of blood vessel rings in tissue bath (basal tension, β-amyloid induced vasoactivity)
Experimental: Freshly excised rat and porcine blood vessels were placed in Kreb's bicarbonate buffer equilibrated with 5% CO2 in O2. The buffer composition consisted of 118.2 mM NaCl, 4.7 mM KCl, 1.2 mM MgSO4, 2.5 mM CaCl2, 1.2 mM NaH2 PO4, 23 mM NaHCO3 and 11.2 mM glucose. After cleaning the vessels free of fat and other adhering tissues, the vessels were cut into ring segments of approximately 3 mm in length. Care was taken not to damage the intimal surface.
The endothelium was removed from some preparations by rubbing the inside of the lumen with a metal spatula for six to ten seconds and subsequent rinsing with buffer. The removal of endothelium was confirmed by testing for relaxation to acetylcholine [Furchgott and Zawadzki, 1980].
The blood vessel preparations were mounted on stainless steel hooks attached to a force-displacement transducer and equilibrated under the optimum tension of 1.3 g for a period of sixty minutes in a tissue bath (10 ml) containing oxygenated (5% CO2 in O2) Kreb's buffer at 37° C. The buffer was changed every fifteen minutes. After equilibration for sixty minutes the viability of the blood vessel with intact endothelium was established by constricting the blood vessel using phenylephrine ([…]). This dose of phenylephrine elicited 80% of the maximum response. […] The vessel preparations were washed for fifteen minutes before various manipulations as described below.
Referring to FIG. 10, the arrow indicates the addition of 10^-6 M β-amyloid. The control tissue received no β-amyloid. SOD (150 units/ml) was added thirty seconds prior to the addition of β-amyloid. The maximum contraction induced by β-amyloid was 1.14±0.13 (g) and in presence of SOD the contraction was reduced to 0.04±0.02 (g). Values represent the mean±SEM of five separate experiments.

rat coronary arteries = assay: Rat coronary artery constriction and relaxation (U46619, acetylcholine); conditions: single dose 10^-6 M; preconstricted with 10^-7 M U46619
Experimental: The effects of β-amyloid peptide were examined on samples of rat coronary arteries prepared as described above. Referring specifically to FIG. 1, rat coronary arteries were treated with β-amyloid peptide (Aβ40) causing constriction of the coronary arteries.
FIG. 3 illustrates the effect of various amyloid fragments on the constriction of rat coronary arteries. Following control constriction with 10^-7 M U46619, the tissue samples were rinsed, equilibrated with buffer, and treated with 10^-6 M Aβ peptides for fifteen minutes. Following treatment with the Aβ peptides, the blood vessels were rinsed and again exposed to U46619. The values are expressed as percent of control constriction produced by U46619 alone.
The effect of pretreatment of coronary arteries with a single dose (10^-6 M) of A40 on acetylcholine induced relaxation is shown in FIG. 20. The blood vessel was preconstricted with 10^-7 M U46619 and relaxed with increasing doses of acetylcholine (10^-9 M to 10^-5 M).

[2] = test system: bovine mid cerebral arteries; assay: Bovine mid cerebral artery contraction (U46619) and bradykinin vasodilation; conditions: 1 μM β-amyloid for 15 minutes
Experimental: Freshly dissected bovine mid cerebral arteries were cut into 3 mm rings and studied in tissue chamber as described earlier. Contraction of the blood vessel to the vasoconstrictor U46619 was studied before and after treatment with 1 μM β-amyloid for 15 minutes. […] (See FIG. 24).

[3] = test system: porcine coronary arteries; assay: Porcine coronary artery vascular tone and bradykinin relaxation
Description: Freshly isolated porcine coronary arteries were studied by the methods described above for rat aorta.
The effect of pre-treatment with a single dose of amyloid protein on relaxation induced by increasing concentrations of the vasodilator bradykinin is shown in FIG. 23. […] was preconstricted with a single dose of the vasoconstrictor U46619.

[4] = test system: endothelial cell layer in rat coronary artery; assay: Electron microscopy of endothelial cell layer in rat coronary artery; conditions: β-amyloid thirty minutes at 10^-6 M
Experimental: The physiological effects of β-amyloid treatment on the coronary artery with and without pretreatment with SOD is shown in FIG. 7A-C. FIG. 7A-C are electron micrographs showing the endothelial cell layer in rat coronary artery. […] The tissue samples were kept in glutaraldehyde solution at 4° C. until processed and then rinsed with cacodylate buffer. The tissues were post-fixed with 1% buffered osmium tetroxide, dehydrated with grated ethanol solutions, and embedded in a mixture of eponaraldite. Ultra thin sections were stained with uranyl acetate and lead citrate and viewed on a model 7,000 Hitachi transmission electron microscope. The inset bar indicates two microns. The experiment was repeated three or more times with blood vessels from different animals. FIG. 7A is a control coronary artery and depicts normal endothelial cells closely adhering to the intimal elastic lamina lining of the lumen. […] FIG. 7C depicts a rat coronary artery pretreated with SOD (150 units/ml, for thirty seconds prior to the addition of β-amyloid).

## β-amyloid
[1]; incubation periods of fifteen minutes
  β-amyloid concentration required to induce the morphological changes: > 5×10^-7 M
[1]; β-amyloid 10^-6 M, 37° C., thirty minutes
  endothelial cell morphology after incubation: induced significant damage to the endothelial cells
Blood vessel (rat aorta); 10^-6 M β-amyloid, mean±SEM of five experiments
  maximum contraction induced by β-amyloid: 1.14 ± 0.13 g
Blood vessel (rat aorta); after β-amyloid addition
  duration of contraction/relaxation activity: fifteen to twenty minutes
  initial detectable change: minor relaxation: < 0.1 g
  onset of vasoactivity: within thirty seconds
Blood vessel (rat aorta); increasing concentration of β-amyloid, basal tension, intact endothelium
  constriction of the blood vessel: constricted the blood vessel in a concentration-dependent manner
Blood vessel (rat aorta); vessels with and without endothelium
  endothelium dependence of the constricting effect: only occurred in the presence of endothelium
Rat coronary arteries
  acetylcholine induced vasodilation after pretreatment: significantly reduced the vasodilation induced by acetylcholine
[2]
  contraction induced by U46619 after β-amyloid: significantly increased
  vasodilatory effect of bradykinin after β-amyloid: markedly reduced
[3]; increasing concentrations of amyloid peptide
  contraction of porcine coronary artery: dose dependent contraction
[3]; single dose of amyloid, increasing bradykinin
  vasodilation caused by bradykinin after amyloid peptide: reduced the vasodilation caused by the bradykinin
[3]; single dose of amyloid, preconstricted with U46619
  vasoconstriction by U46619 after amyloid peptide: significant increase in vasoconstriction
[4]
  endothelial layer morphology in rat coronary artery: Derangement of the endothelial layer, condensed nucleus, separation from the intimal elastic lamina, and areas of denuded internal elastic lamina
